Measurements as given in US11807648B2, “Process for preparing substituted polycyclic pyridone derivative and crystal thereof” (priority 2016, dated 2023).

Columns and labels:
[1] = test system: red blood cell suspension prepared from ovine defibrinated blood of sheep; test: Photohemolysis test; format: cell-based; details: UVA and UVB irradiation 10 J/cm^2, 290-400 nm
Description: Test Example 12: Photohemolysis Test
Compound (V) was dissolved at a predetermined concentration and mixed on a microplate with a […] (2.5 v/v %) prepared from ovine defibrinated blood of sheep. Light irradiation in the UVA and UVB wavelength regions (10 J/cm^2, 290-400 nm) was performed using ultraviolet fluorescent lamp (GL20SE lamp, Sankyo Denki and FL20S-BLB lamp, Panasonic). The mixed solution after the irradiation was collected and centrifuged. After centrifugation, the supernatant was collected and transferred to a microplate, and the absorbance (at 540 or 630 nm) of the supernatant was measured. The absorbance at 540 and 630 nm were used as an index of biological membrane damage (% light hemolysis) and lipid membrane peroxidation (methemoglobin production), respectively. (−): less than 10% for photohemolysis rate and less than 0.05 for the change in absorbance at 630 nm; (+): 10% or more for photohemolysis rate and 0.05 or more for the change in absorbance at 630 nm.

CYP3A4 [2] = molecular target: T1, CYP3A4 (Homo sapiens, UniProt P08684); test: biochemical; format: in vitro ADME; set-up: Using commercially available pooled human hepatic microsome; from tissue; details: pooled human hepatic microsome 0.2 mg protein/mL, 15 minutes, 37° C.
Description: (§1) Test Example 3: CYP Inhibition Test
(§2) Using commercially available pooled human hepatic microsome and employing, as a reference, typical substrate metabolism reactions of human main five CYP enzyme forms (CYP1A2, 2C9, 2C19, 2D6, 3A4), i.e., 7-ethoxyresorufin O-deethylation (CYP1A2), tolbutamide methyl-hydroxylation (CYP2C9), mephenytoin 4′-hydroxylation (CYP2C19), dextromethorphan O-demethylation (CYP2D6), and terfenedine hydroxylation (CYP3A4), the degree of inhibition by Compound (V) was assessed for each metabolite production.
The reaction conditions were as follows: […]
For each of the five substances, a reaction solution was prepared on a 96-well plate by adding the substrate, human hepatic microsome and Compound (V) to 50 mmol/L Hepes buffer in the proportion as described above. […] After centrifugation at 3000 rpm for minutes, resorufin (CYP1A2 metabolite) in the supernatant was measured by fluorescent multi-label counter, and hydroxytolbutamide (CYP2C9 metabolite), 4′-hydroxymephenytoin (CYP2C19 metabolite), dextrorphan (CYP2D6 metabolite) and terfenadine alcohol (CYP3A4 metabolite) were measured by LC/MS/MS. […]

CYP3A4 [3] = molecular target: T1, CYP3A4; format: in vitro ADME; set-up: host or cells: Escherichia coli; details: pre-reaction time 0 or 30 minutes, 7-BFC substrate
Description: Test Example 6: CYP3A4 Fluorescent MBI Test
The CYP3A4 fluorescent MBI test investigates enhancement of CYP3A4 inhibition by Compound (V) in metabolism reaction. 7-benzyloxytrifluoromethylcoumarin (7-BFC) was debenzylated by CYP3A4 enzyme (enzyme expressed in Escherichia coli) and a metabolite, 7-hydroxytrifluoromethylcoumarin (7-HFC) which emits fluorescent light was produced. The test was performed using 7-HFC production reaction as an index.
The reaction conditions were as follows: Substrate, 5.6 μmol/L 7-BFC; pre-reaction time, 0 or 30 minutes; reaction time, 15 minutes; reaction temperature, 25° C. […]
A pre-reaction solution containing the enzyme and Compound (V) in K-Pi buffer (pH 7.4) as described above was added to a 96-well plate. […] For each of the plates on which the reaction was performed, the fluorescent value of the metabolite 7-HFC was measured by fluorescent plate reader (Ex=420 nm, Em=535 nm).
As a control for remaining activity, DMSO (i.e., the solvent for dissolving Compound (V)) was added solely to the reaction system, and the remaining activity (%) was calculated for each concentration of Compound (V) in the solution. The IC50 value was calculated by reverse-presumption by logistic model using the concentration and the inhibition rate. […]

[4] = format: in vitro ADME; details: 2 μmol/L of the compound, human liver microsomes 0.5 mg protein/mL, 30 minutes, 37° C., NADPH
Description: Test Example 5: Metabolism Stability Test
Compound (V) was reacted with commercially available pooled human hepatic microsomes for a certain time. The remaining rate of the compound was calculated by comparing the reacted sample and the unreacted sample to assess the degree of metabolism of Compound (V) in liver.
The compound was reacted in 0.2 mL of buffer (50 mmol/L Tris-HCl pH 7.4, 150 mmol/L potassium chloride, 10 mmol/L magnesium chloride) containing 0.5 mg protein/mL of human liver microsomes at 37° C. for 0 minute or 30 minutes in the presence of 1 mmol/L NADPH (oxidative reaction). After the reaction, 50 μL of the reaction solution was added to 100 μL of methanol/acetonitrile=1/1 (v/v), mixed and centrifuged at 3000 rpm for 15 minutes. The amount of Compound (V) in the supernatant was measured by LC/MS/MS, and the remaining rate of the compound after the reaction was calculated, with the amount of the compound at 0 minute of reaction time being 100%. The hydrolysis reaction was carried out in the absence of NADPH, and the glucuronidation reaction was carried out in the presence of 5 mmol/L UDP-glucuronic acid instead of NADPH, and the subsequent procedure was carried out in the same manner as described.

CYP2C9 = molecular target: T2, CYP2C9 (Homo sapiens, UniProt P11712); test: biochemical; format: in vitro ADME; details: pooled human hepatic microsome 0.2 mg protein/mL, 15 minutes, 37° C.
T2 construct: Using commercially available pooled human hepatic microsome; from tissue
Description: as §1, §2
(§3) The reaction conditions were as follows:
(§4) Substrate: 0.5 μmol/L ethoxyresorufin (CYP1A2), 100 μmol/L tolbutamide (CYP2C9), 50 μmol/L S-mephenytoin (CYP2C19), 5 μmol/L dextromethorphan (CYP2D6), 1 μmol/L terfenedine (CYP3A4); Reaction time: 15 minutes; Reaction temperature: 37° C.; Enzyme: pooled human hepatic microsome 0.2 mg protein/mL; Concentration of Compound (V): 1, 5, 10, 20 μmol/L (four points).
(§5) For each of the five substances, a reaction solution was prepared on a 96-well plate by adding the substrate, human hepatic microsome and Compound (V) to 50 mmol/L Hepes buffer in the proportion as described above. NADPH, which is a cofactor, was added to initiate the metabolism reaction. After incubating at 37° C. for 15 minutes, a methanol/acetonitrile solution (1/1 (v/v)) was added to quench the reaction. After centrifugation at 3000 rpm for minutes, resorufin (CYP1A2 metabolite) in the supernatant was measured by fluorescent multi-label counter, and hydroxytolbutamide (CYP2C9 metabolite), 4′-hydroxymephenytoin (CYP2C19 metabolite), dextrorphan (CYP2D6 metabolite) and terfenadine alcohol (CYP3A4 metabolite) were measured by LC/MS/MS.
(§6) As a control, DMSO (the solvent for dissolving Compound (V)) was added solely to the reaction system. The remaining activity (%) of Compound (V), relative to the control (100%), was calculated at each concentration of the compound, and the IC50 was calculated by reverse presumption by a logistic model using the concentration and the inhibition rate.

CYP2C19 = molecular target: T3, CYP2C19 (Homo sapiens, UniProt P33261); test: biochemical; format: in vitro ADME; details: pooled human hepatic microsome 0.2 mg protein/mL, 15 minutes, 37° C.
T3 construct: Using commercially available pooled human hepatic microsome; from tissue
Description: as §1, §2, §3, §4, §5, §6

CYP1A2 = molecular target: T4, CYP1A2 (Homo sapiens, UniProt P05177); test: biochemical; format: in vitro ADME; details: pooled human hepatic microsome 0.2 mg protein/mL, 15 minutes, 37° C.
T4 construct: Using commercially available pooled human hepatic microsome; from tissue
T4 sequence (P05177 1-516): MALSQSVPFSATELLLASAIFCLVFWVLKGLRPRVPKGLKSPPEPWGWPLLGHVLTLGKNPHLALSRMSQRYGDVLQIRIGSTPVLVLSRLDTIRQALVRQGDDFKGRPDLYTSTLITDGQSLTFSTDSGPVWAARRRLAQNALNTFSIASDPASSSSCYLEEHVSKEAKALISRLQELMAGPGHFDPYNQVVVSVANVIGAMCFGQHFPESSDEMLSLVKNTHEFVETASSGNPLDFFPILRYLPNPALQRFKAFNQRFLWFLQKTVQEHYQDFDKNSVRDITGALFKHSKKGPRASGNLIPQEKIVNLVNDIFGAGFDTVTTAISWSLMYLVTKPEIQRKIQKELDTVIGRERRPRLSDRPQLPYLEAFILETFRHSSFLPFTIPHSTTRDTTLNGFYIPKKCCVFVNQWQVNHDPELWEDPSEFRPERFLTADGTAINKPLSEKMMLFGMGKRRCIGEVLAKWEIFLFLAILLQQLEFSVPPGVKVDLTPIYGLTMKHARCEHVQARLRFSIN
Description: as §1, §2, §3, §4, §5, §6

CYP2D6 = molecular target: T5, CYP2D6 (Homo sapiens, UniProt P10635); test: biochemical; format: in vitro ADME; details: pooled human hepatic microsome 0.2 mg protein/mL, 15 minutes, 37° C.
T5 construct: Using commercially available pooled human hepatic microsome; from tissue
Description: as §1, §2, §3, §4, §5, §6

[5] = Plasma concentration after oral administration of Compound (VI) to rats; format: in vivo; details: after oral administration of Compound (VI) to rats under non-fasting condition
Description: FIG. 7 is a time-course of the concentration in plasma of the compound of formula (V) after oral administration of the compound of formula (VI), which is a prodrug of the compound of formula (V), to rats under non-fasting condition.
FIG. 8 is a time-course of the concentration in plasma of the compound of formula (VI) after oral administration of the compound of formula (VI), which is a prodrug of the compound of formula (V), to rats under non-fasting condition.
FIG. 7 and FIG. 8 show the time-course of the concentration in plasma of Compound (V) and its prodrug Compound (VI) after oral administration of Compound (VI) to rats under non-fasting condition.

T1 sequence (P08684 whole entry): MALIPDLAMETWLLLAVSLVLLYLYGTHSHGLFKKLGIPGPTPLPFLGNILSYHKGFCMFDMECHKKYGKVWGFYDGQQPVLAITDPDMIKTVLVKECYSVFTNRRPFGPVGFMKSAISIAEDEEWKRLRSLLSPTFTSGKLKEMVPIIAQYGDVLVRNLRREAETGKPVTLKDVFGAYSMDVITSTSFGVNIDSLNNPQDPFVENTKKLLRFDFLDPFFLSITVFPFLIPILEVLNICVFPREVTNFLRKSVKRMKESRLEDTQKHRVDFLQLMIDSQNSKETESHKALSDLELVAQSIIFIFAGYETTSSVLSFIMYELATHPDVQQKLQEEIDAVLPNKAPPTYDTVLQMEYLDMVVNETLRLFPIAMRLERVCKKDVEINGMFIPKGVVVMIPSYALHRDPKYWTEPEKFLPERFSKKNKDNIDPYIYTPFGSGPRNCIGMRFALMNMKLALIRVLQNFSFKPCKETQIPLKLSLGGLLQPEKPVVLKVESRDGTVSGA
T3 sequence (P33261 whole entry): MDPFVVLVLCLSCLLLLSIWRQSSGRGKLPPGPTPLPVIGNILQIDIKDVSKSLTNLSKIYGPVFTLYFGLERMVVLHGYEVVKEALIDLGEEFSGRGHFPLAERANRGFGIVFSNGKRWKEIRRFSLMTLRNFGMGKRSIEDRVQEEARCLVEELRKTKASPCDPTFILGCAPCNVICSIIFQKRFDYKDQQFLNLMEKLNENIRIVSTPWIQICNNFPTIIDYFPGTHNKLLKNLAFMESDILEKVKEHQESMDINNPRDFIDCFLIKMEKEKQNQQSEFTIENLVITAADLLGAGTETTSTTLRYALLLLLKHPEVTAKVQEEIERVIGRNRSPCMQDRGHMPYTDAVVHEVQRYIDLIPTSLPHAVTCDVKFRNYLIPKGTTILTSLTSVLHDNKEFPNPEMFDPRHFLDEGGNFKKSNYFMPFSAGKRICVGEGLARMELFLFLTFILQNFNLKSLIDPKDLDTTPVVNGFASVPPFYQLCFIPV
T2 sequence (P11712 whole entry): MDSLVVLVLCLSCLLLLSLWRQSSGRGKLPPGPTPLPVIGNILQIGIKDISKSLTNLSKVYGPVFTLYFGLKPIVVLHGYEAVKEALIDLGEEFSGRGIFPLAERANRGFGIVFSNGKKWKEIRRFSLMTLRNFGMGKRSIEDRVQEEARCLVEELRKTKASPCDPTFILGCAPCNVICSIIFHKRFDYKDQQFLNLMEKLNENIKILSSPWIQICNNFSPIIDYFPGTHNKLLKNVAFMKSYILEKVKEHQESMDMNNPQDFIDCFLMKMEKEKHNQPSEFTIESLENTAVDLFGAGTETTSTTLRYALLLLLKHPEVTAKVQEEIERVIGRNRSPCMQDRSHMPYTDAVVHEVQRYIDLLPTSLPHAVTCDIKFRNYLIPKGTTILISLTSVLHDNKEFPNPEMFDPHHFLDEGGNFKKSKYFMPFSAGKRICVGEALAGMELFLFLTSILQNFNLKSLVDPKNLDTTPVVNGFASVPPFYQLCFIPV
T5 sequence (P10635 whole entry): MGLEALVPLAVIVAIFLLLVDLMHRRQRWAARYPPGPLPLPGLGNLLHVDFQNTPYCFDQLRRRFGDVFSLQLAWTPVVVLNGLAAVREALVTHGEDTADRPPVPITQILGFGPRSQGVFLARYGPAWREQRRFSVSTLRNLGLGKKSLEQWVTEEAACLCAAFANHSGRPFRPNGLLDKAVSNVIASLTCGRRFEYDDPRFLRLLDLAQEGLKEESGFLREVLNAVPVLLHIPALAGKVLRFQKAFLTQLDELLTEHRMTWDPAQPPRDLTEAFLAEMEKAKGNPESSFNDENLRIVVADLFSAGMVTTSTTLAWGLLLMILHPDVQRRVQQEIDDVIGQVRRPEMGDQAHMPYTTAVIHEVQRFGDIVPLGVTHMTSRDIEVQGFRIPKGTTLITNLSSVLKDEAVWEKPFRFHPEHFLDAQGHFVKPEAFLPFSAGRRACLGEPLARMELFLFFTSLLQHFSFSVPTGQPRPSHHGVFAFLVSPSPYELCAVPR

| SMILES | photohemolysis [1] | IC50 (CYP3A4 [2]) [µM] | CYP3A4 fluorescent MBI (difference in IC50 values with/without pre-incubation) (CYP3A4 [3]) | remaining rate in oxidative metabolism [4] [%] | IC50 (CYP2C9) [µM] | IC50 (CYP2C19) [µM] | IC50 (CYP1A2) [µM] | IC50 (CYP2D6) [µM] | concentration in plasma sample [5] |
| --- | --- | --- | --- | --- | --- | --- | --- | --- | --- |
| O=C1c2c(O)c(=O)ccn2N([C@@H]2c3ccccc3SCc3c2ccc(F)c3F)[C@@H]2COCCN12 [Compound (V)] | (−) ((−): less than 10% for photohemolysis rate and less than 0.05 for the change in absorbance at 630 nm) | > 20 | (−) (a difference of 3 μM or less was defined as (−)) | 90.1 | > 20 | > 20 | > 20 | > 20 | – |
| COC(=O)OCOc1c2n(ccc1=O)N([C@@H]1c3ccccc3SCc3c1ccc(F)c3F)[C@@H]1COCCN1C2=O [Compound (VI)] | – | – | – | – | – | – | – | – | below the limit of quantification |
